T1: Solute carrier organic anion transporter family member 1B3 (OATP1B3) (Homo sapiens, UniProt Q9NPD5)
T1 sequence (Q9NPD5 whole entry): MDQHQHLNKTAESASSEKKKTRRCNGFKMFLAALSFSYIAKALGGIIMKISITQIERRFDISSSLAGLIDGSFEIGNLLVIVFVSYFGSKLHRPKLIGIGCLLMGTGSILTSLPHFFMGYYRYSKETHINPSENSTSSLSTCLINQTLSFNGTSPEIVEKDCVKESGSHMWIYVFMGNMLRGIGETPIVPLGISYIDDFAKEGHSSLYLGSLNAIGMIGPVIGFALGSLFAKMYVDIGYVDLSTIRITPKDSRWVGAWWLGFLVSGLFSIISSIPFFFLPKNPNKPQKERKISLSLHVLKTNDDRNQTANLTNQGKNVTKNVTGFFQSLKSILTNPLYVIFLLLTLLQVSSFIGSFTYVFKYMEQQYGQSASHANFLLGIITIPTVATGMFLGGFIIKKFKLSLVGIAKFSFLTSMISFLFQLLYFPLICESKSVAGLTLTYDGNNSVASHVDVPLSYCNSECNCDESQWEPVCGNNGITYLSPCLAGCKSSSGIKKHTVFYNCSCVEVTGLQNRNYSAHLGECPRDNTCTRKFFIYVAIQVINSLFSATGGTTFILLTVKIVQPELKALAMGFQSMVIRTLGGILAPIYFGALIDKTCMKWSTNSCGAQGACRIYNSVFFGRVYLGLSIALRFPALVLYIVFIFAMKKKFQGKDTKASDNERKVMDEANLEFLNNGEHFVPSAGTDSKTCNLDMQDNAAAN


Key:
[1] = molecular target: T1, Solute carrier organic anion transporter family member 1B3 (OATP1B3); test: (§1) TP_TRANSPORTER: uptake in Xenopus laevis oocytes; conditions: Xenopus laevis oocytes expressing OATP1B3 (SLCO1B3)
[2] = substrate: CSCC[C@H](NC(=O)[C@H](Cc1ccc(OS(=O)(=O)O)cc1)NC(=O)[C@@H](N)CC(=O)O)C(=O)NCC(=O)N[C@@H](Cc1c[nH]c2ccccc12)C(=O)N[C@@H](CCSC)C(=O)N[C@@H](CC(=O)O)C(=O)N[C@@H](Cc1ccccc1)C(N)=O; test: as §1; assay type: functional, cell-based, Oocyte

Molecule	Km [1] [µM]	Km [2] [µM]
CSCC[C@H](NC(=O)[C@H](Cc1ccc(OS(=O)(=O)O)cc1)NC(=O)[C@@H](N)CC(=O)O)C(=O)NCC(=O)N[C@@H](Cc1c[nH]c2ccccc12)C(=O)N[C@@H](CCSC)C(=O)N[C@@H](CC(=O)O)C(=O)N[C@@H](Cc1ccccc1)C(N)=O [SINCALIDE]	11.1	–
Solute carrier organic anion transporter family member 1B2 (Rattus norvegicus) (protein) MDHTQQSRKAAEAQPSRSKQTRFCDGFKLFLAALSFSYICKALGGVVMKSSITQIERRFDIPSSISGLIDGGFEIGNLLVIVFVSYFGSKLHRPKLIGIGCFIMGIGSILTALPHFFMGYYKYAKENDIGSLGNSTLTCFINQMTSPTGPSPEIVEKGCEKGLKSHMWIYVLMGNMLRGIGETPIVPLGISYLDDFAKEGHTSMHLGTLHTIAMIGPILGFIMSSVFAKIYVDVGYVDLNSVRITPNDARWVGAWWLSFIVNGLLCITSSIPFFFLPKIPKRSQEERKNSVSLHAPKTDEEKKHMTNLTKQEEQDPSNMTGFLRSLRSILTNEIYVIFLILTLLQVSGFIGSFTYLFKFIEQQFGRTASQANFLLGIITIPTMATAMFLGGYIVKKFKLTSVGIAKFVFFTSSVAYAFQFLYFPLLCENKPFAGLTLTYDGMNPVDSHIDVPLSYCNSDCSCDKNQWEPICGENGVTYISPCLAGCKSFRGDKKPNNTEFYDCSCISNSGNNSAHLGECPRYKCKTNYYFYIILQVTVSFFTAMGSPSLILILMKSVQPELKSLAMGFHSLIIRALGGILAPIYYGAFIDRTCIKWSVTSCGKRGACRLYNSRLFGFSYLGLNLALKTPPLFLYVVLIYFTKRKYKRNDNKTLENGRQFTDEGNPDSVNKNGYYCVPYDEQSNETPL	–	14.9
